In patent US20110034526A1, “Benzimidazole Compounds” (Wyeth LLC, priority 2007, published 2011):
Read-outs that look alike come from different tables or passages of the source.

Columns and labels:
human LXRβ = target: T1, human LXRβ (Homo sapiens, UniProt P55055); assay: Ligand-binding test procedure for human LXRβ (3H T0901317 tracer, flash plates)
T1 construct: biotin (biotinylated); made in house; host or cells: E. coli (crude extract)
T1 sequence (P55055 1-460): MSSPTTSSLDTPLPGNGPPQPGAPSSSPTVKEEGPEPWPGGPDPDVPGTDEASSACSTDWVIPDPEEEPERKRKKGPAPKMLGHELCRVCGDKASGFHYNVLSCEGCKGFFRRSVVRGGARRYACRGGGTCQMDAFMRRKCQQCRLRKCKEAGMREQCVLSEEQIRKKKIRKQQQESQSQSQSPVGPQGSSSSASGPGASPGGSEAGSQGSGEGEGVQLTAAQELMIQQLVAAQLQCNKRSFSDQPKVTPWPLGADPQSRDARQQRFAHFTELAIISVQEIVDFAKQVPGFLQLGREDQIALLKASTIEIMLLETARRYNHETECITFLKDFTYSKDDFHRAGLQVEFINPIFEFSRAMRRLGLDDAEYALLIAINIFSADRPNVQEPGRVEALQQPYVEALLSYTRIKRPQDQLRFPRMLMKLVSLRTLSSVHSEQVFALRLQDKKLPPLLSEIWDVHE

human LXRα = target: T2, human LXRα (Homo sapiens, UniProt Q13133); assay: Ligand-binding test procedure for human LXRα (3H T0901317 tracer, flash plates); settings: biotinylated hLXRα, tracer 3H T0901317
T2 construct: biotin (biotinylated); made in house; host or cells: E. coli (crude extract)
T2 sequence (Q13133 1-447): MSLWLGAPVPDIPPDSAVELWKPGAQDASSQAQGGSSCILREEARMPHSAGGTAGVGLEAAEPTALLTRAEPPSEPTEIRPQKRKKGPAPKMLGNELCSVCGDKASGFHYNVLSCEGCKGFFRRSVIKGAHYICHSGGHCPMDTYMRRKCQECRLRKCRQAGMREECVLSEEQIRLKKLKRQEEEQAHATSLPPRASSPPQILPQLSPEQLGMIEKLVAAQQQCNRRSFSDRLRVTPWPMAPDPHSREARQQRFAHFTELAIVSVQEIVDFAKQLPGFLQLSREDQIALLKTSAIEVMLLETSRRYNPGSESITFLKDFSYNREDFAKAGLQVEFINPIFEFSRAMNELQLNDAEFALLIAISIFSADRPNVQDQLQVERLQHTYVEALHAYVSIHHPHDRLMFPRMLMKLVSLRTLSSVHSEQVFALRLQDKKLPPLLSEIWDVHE

ABCA1 gene = assay: Quantitative analysis of ABCA1 gene regulation in THP-1 cells (real-time PCR); assay type: cell-based, human; settings: read-out: EC50 ABCA1
Description: The compounds of formula (I) effect on the regulation of the ABCA1 gene was evaluated using the following procedure.
The THP-1 monocytic cell line (ATCC # TIB-202) was obtained from American Type Culture Collection (Manassas, Va.) and cultured in RPMI 1640 medium (Gibco, Carlsbad, Calif.) containing 10% FBS, 2 mM L-glutamine, and 55 uM beta-Mercaptoethanol (BME). […] Differentiated THP-1 cells were treated with test compounds or ligands dissolved in DMSO (Sigma, D-8779) in culture medium lacking phorbal ester. […] Unstimulated cells treated with vehicle were included as negative controls on each plate. An LXR agonist reference, N-(2,2,2-trifluoro-ethyl)-N-[4-(2,2,2-trifluoro-1-hydroxy-1-trifluoromethyl-ethyl)-phenyl]-benzenesulfonamide (Schultz, Joshua R., Genes & Development (2000), 14(22), 2831-2838), was dosed at 1.0 uM and served as a positive control. […] Results of antagonist analysis are expressed as % antagonism and IC50 (in μM).
Total cellular RNA was isolated from treated cells cultured in 96-well plates using PrepStation 6100 (Applied Biosystems, Foster City, Calif.), according to the manufacturer's recommendations. RNA was resuspended in ribonuclease-free water and stored at −70° C. prior to analysis. RNA concentrations were quantitated with RiboGreen test procedure, #R-11490 (Molecular Probes, Eugene, Oreg.).
Gene-specific mRNA quantitation was performed by real-time PCR with the Perkin Elmer Corp. chemistry on an ABI Prism 7700 Sequence detection system (Applied Biosystems, Foster City, Calif.) according to the manufacturer's instructions. Samples (50-100 ng) of total RNA were assayed in duplicate or triplicate in 50 μl reactions using one-step RT-PCR and the standard curve method to estimate specific mRNA concentrations. Sequences of gene-specific primer and probe sets were designed with Primer Express Software (Applied Biosystems, Foster City, Calif.). […] RT and PCR reactions were performed according to PE Applied Biosystem's protocol for Taqman Gold RT-PCR or Qiagen's protocol for Quantitect probe RT-PCR. Relative levels of ABCA1 mRNA are normalized using GAPDH mRNA or 18S rRNA probe/primer sets purchased commercially (Applied Biosystems, Foster City, Calif.).
Mean, standard deviation and statistical significance of duplicate evaluations of RNA samples were assessed using ANOVA, one-way analysis of variance using SAS analysis.

[1] = Gene regulation by LXR (Human), differentiated THP-1 cells, 18 hrs, ABCA1 mRNA

Structure (SMILES)	IC50 (human LXRβ)	IC50 (human LXRα)	EC50 (ABCA1 gene; [1])	EC50 (ABCA1 gene; Homo sapiens, THP-1, 18 h)
Cc1cc(Oc2cccc(S(=O)(=O)C(C)C)c2)ccc1-n1c(C)nc2c(C(F)(F)F)cccc21 [Example 95, 2-methyl-1-(2-methyl-4-{3-[(1-methylethyl)sulfonyl]phenoxy}phenyl)-4-(trifluoromethyl)-1H-benzimidazole]	61 nM	1290 nM	409 nM	–
CCCc1nc2c(C(F)(F)F)cccc2n1-c1cccc(Oc2cccc(S(C)(=O)=O)c2)c1 [Example 27, 1-{3-[3-(methylsulfonyl)phenoxy]phenyl}-2-propyl-4-(trifluoromethyl)-1H-benzimidazole]	0.9 nM	3.9 nM	22 nM	–
CCS(=O)(=O)c1cccc(Oc2ccc(-n3c(C)nc4c(C(F)(F)F)cccc43)cc2)c1 [Example 65, 1-{4-[3-(ethylsulfonyl)phenoxy]phenyl}-2-methyl-4-(trifluoromethyl)-1H-benzimidazole]	1.3 nM	7.2 nM	355 nM	–
Cc1nc2c(C(F)(F)F)cccc2n1-c1cccc(OCc2cccc(S(C)(=O)=O)c2)c1 [Example 107, 2-methyl-1-(3-{[3-(methylsulfonyl)benzyl]oxy}phenyl)-4-(trifluoromethyl)-1H-benzimidazole]	120 nM	1960 nM	3530 nM	–
CS(=O)(=O)c1cccc(Oc2cccc(-n3c(C(F)F)nc4c(C(F)(F)F)cccc43)c2)c1 [Example 33, 2-(difluoromethyl)-1-{3-[3-(methylsulfonyl)phenoxy]phenyl}-4-(trifluoromethyl)-1H-benzimidazole]	2 nM	36 nM	190 nM	–
COc1ccc(-n2c(C(F)(F)c3ccccc3)nc3c(C(F)(F)F)cccc32)cc1 [Example 74, 2-[difluoro(phenyl)methyl]-1-(4-methoxyphenyl)-4-(trifluoromethyl)-1H-benzimidazole]	32 nM	635 nM	440 nM	–
Cc1nc2c(Cl)cccc2n1-c1cccc(Oc2ccc(S(C)(=O)=O)cc2)c1 [Example 48, 4-chloro-2-methyl-1-{3-[4-(methylsulfonyl)phenoxy]phenyl}-1H-benzimidazole]	6 nM	64 nM	–	1120 nM
CCc1nc2c(C(F)(F)F)cccc2n1-c1ccc(Oc2cccc(S(C)(=O)=O)c2)cc1 [Example 67, 2 ethyl-1-{4-[3-(methylsulfonyl)phenoxy]phenyl}-4-(trifluoromethyl)-1H-benzimidazole]	99 nM	197 nM	846 nM	–
CS(=O)(=O)c1ccc(Oc2ccc(Cl)c(-n3cnc4c(C(F)(F)F)cccc43)c2)cc1 [Example 83, 1-{2-chloro-5-[4-(methylsulfonyl)phenoxy]phenyl}-4-(trifluoromethyl)-1H-benzimidazole]	33 nM	277 nM	–	110 nM
Cc1nc2c(C(F)(F)F)cccc2n1-c1cccc(Oc2cccc(S(=O)(=O)C3CC3)c2)c1 [Example 38, 1-{3-[3-(cyclopropylsulfonyl)phenoxy]phenyl}-2-methyl-4-(trifluoromethyl)-1H-benzimidazole]	5.8 nM	141 nM	650 nM	–
CS(=O)(=O)c1cc(F)cc(Oc2ccc(Cl)c(-n3cnc4c(C(F)(F)F)cccc43)c2)c1 [Example 82, 1-{2-chloro-5-[3-fluoro-5-(methylsulfonyl)phenoxy]phenyl}-4-(trifluoromethyl)-1H-benzimidazole]	4.9 nM	102 nM	–	1210 nM
Cc1nc2c(C(F)(F)F)cccc2n1-c1ccc(Oc2cc(F)cc(S(C)(=O)=O)c2)cc1 [Example 66, 1-{4-[3-fluoro-5-(methylsulfonyl)phenoxy]phenyl}-2-methyl-4-(trifluoromethyl)-1H-benzimidazole]	51 nM	261 nM	355 nM	–
Cc1nc2c(C(F)(F)F)cccc2n1-c1cccc(Oc2cccc(S(=O)(=O)CCCN)c2)c1 [Example 37, 3-[(3-{3-[2-methyl-4-(trifluoromethyl)-1H-benzimidazol-1-yl]phenoxy}phenyl)sulfonyl]propan-1-amine]	41 nM	1470 nM	4700 nM	–
CCc1nc2c(C(F)(F)F)cccc2n1-c1ccc(Oc2cc(F)cc(S(C)(=O)=O)c2)cc1 [Example 69, 2-ethyl-1-{4-[3-fluoro-5-(methylsulfonyl)phenoxy]-phenyl}-4-(trifluoromethyl)-1H-benzimidazole]	20 nM	280 nM	245 nM	–
Cc1nc2c(C(F)(F)F)cccc2n1-c1cccc(-c2cccc(S(C)(=O)=O)c2)c1 [Example 75, 2-methyl-1-[3′-(methylsulfonyl)biphenyl-3-yl]-4-(trifluoromethyl)-1H-benzimidazole]	12.7 nM	304 nM	–	215 nM
Cc1nc2c(Cl)cccc2n1-c1cccc(Oc2cccc(S(C)(=O)=O)c2)c1 [Example 40, 4-chloro-2-methyl-1-{3-[3-(methylsulfonyl)phenoxy]phenyl}-1H-benzimidazole]	–	–	315 nM	–
CCS(=O)(=O)c1cc(F)cc(Oc2cccc(-n3c(C)nc4c(C(F)(F)F)cccc43)c2)c1 [Example 7, 1-{3-[3-(ethylsulfonyl)-5-fluorophenoxy]phenyl}-2-methyl-4-(trifluoromethyl)-1H-benzimidazole]	–	–	1240 nM	–
CC(C)S(=O)(=O)c1cccc(Oc2ccc(-n3c(C(F)(F)F)nc4c(C(F)(F)F)cccc43)cc2)c1 [Example 73, 1-{4-[3-(isopropylsulfonyl)phenoxy]phenyl}-2,4-bis(trifluoromethyl)-1H-benzimidazole]	47 nM	800 nM	470 nM	–
Cc1nc2c(C(F)(F)F)cccc2n1-c1cccc(Oc2cccc(S(=O)(=O)CCCS(C)(=O)=O)c2)c1 [Example 76, 2-methyl-1-[3-(3-{[3-(methylsulfonyl)propyl]sulfonyl}phenoxy)phenyl]-4-(trifluoromethyl)-1H-benzimidazole]	20 nM	319 nM	–	155 nM
CCS(=O)(=O)c1cccc(Oc2ccc(-n3c(C(F)(F)F)nc4c(C(F)(F)F)cccc43)cc2)c1 [Example 71, 1-{4-[3-(ethylsulfonyl)phenoxy]phenyl}-2,4-bis(trifluoromethyl)-1H-benzimidazole]	83 nM	1100 nM	–	290 nM
